# Tests used:
# Format in all cases: in vivo
# [1] = tested on: sedge, umbrella (small-flower umbrella sedge, Cyperus difformis); assay: Test B flooded paddy test; conditions: Cyperus difformis, 250 g ai/ha, Flood; 0 to 100 scale where 0 is no effect and 100 is complete control; read-out: Sedge, Umbrella plant response rating
# In short: (§1)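 Plants at 2-leaf stage flooded to 3 cm above soil, with compounds applied directly to paddy water and that depth maintained. Plants kept in greenhouse 13–15 d. Visual rating versus controls on a 0 (no effect) to 100 (complete control) scale.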
# rice (Oryra sativa) = assay: Test B flooded paddy test; conditions: Oryza sativa, 250 g ai/ha, Flood; 0 to 100 scale where 0 is no effect and 100 is complete control; read-out: Rice plant response rating
# In short: as §1
# [2] = tested on: ducksalad (Heteranthera limosa); assay: Test B flooded paddy test; conditions: Heteranthera limosa, 250 g ai/ha, Flood; 0 to 100 scale where 0 is no effect and 100 is complete control; read-out: Ducksalad plant response rating
# In short: as §1
# [3] = tested on: barnyardgrass (Echinochloa crus-galli); assay: Test B flooded paddy test; conditions: Echinochloa crus-galli, 250 g ai/ha, Flood; 0 to 100 scale where 0 is no effect and 100 is complete control; read-out: Barnyardgrass plant response rating
# In short: as §1
# [4] = tested on: ragweed (common ragweed, Ambrosia elatior); assay: Test A postemergence; conditions: Ambrosia artemisiifolia, post-emergence, 240 h, postemergence, read-out: Ragweed plant response rating; for pest or weed control at 125 g/ha: 125 g ai/ha, visual injury on 0 to 100 scale (0 no effect, 100 complete control), approx. 10 d; for pest or weed control at 500 g/ha: 500 g ai/ha, 0 to 100 scale, 0 is no effect, 100 is complete control
# In short: (§2)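 Greenhouse, ~10 d after spray; visual injury vs untreated controls, 0 = no effect, 100 = complete control. Preemergence: directed soil spray over planted seeds. Postemergence: plants 2–10 cm, 1–2 leaf stage. Loam/sand blend. Compound in non-phytotoxic solvent with surfactant.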
# [5] = tested on: giant foxtail (Setaria faberii); assay: Test A postemergence; conditions: Setaria faberi, post-emergence, 240 h, postemergence, read-out: Foxtail, Giant plant response rating; for pest or weed control at 125 g/ha: 125 g ai/ha, visual injury on 0 to 100 scale (0 no effect, 100 complete control), approx. 10 d; for pest or weed control at 500 g/ha: 500 g ai/ha, 0 to 100 scale, 0 is no effect, 100 is complete control
# In short: as §2
# [6] = tested on: blackgrass (Alopecurus myosuroides); assay: Test A postemergence; conditions: Alopecurus myosuroides, post-emergence, 240 h, postemergence, read-out: Blackgrass plant response rating; for pest or weed control at 125 g/ha: 125 g ai/ha, visual injury on 0 to 100 scale (0 no effect, 100 complete control), approx. 10 d; for pest or weed control at 500 g/ha: 500 g ai/ha, 0 to 100 scale, 0 is no effect, 100 is complete control
# In short: as §2
# [7] = tested on: Galium (catchweed bedstraw, Galium aparine); assay: Test A postemergence; conditions: Galium, post-emergence, 240 h, postemergence, read-out: Galium plant response rating; for pest or weed control at 125 g/ha: 125 g ai/ha, visual injury on 0 to 100 scale (0 no effect, 100 complete control), approx. 10 d; for pest or weed control at 500 g/ha: 500 g ai/ha, 0 to 100 scale, 0 is no effect, 100 is complete control
# In short: as §2
# [8] = tested on: wheat (Triticum aestivum); assay: Test A postemergence; conditions: Triticum aestivum, post-emergence, 240 h, postemergence, read-out: Wheat plant response rating; for plant injury at 125 g/ha: 125 g ai/ha, visual injury on 0 to 100 scale (0 no effect, 100 complete control), approx. 10 d; for plant injury at 500 g/ha: 500 g ai/ha, 0 to 100 scale, 0 is no effect, 100 is complete control
# In short: as §2
# Kochia (Kochia scoparia) = assay: Test A postemergence; conditions: Bassia scoparia, post-emergence, 240 h, postemergence, read-out: Kochia plant response rating; for pest or weed control at 125 g/ha: 125 g ai/ha, visual injury on 0 to 100 scale (0 no effect, 100 complete control), approx. 10 d; for pest or weed control at 500 g/ha: 500 g ai/ha, 0 to 100 scale, 0 is no effect, 100 is complete control
# In short: as §2
# [9] = tested on: barnyardgrass (Echinochloa crus-galli); assay: Test A postemergence; conditions: Echinochloa crus-galli, post-emergence, 240 h, postemergence, read-out: Barnyardgrass plant response rating; for pest or weed control at 125 g/ha: 125 g ai/ha, visual injury on 0 to 100 scale (0 no effect, 100 complete control), approx. 10 d; for pest or weed control at 500 g/ha: 500 g ai/ha, 0 to 100 scale, 0 is no effect, 100 is complete control
# In short: as §2
# [10] = tested on: pigweed (Amaranthus retroflexus); assay: Test A postemergence; conditions: Amaranthus retroflexus, post-emergence, 240 h, postemergence, read-out: Pigweed plant response rating; for pest or weed control at 125 g/ha: 125 g ai/ha, visual injury on 0 to 100 scale (0 no effect, 100 complete control), approx. 10 d; for pest or weed control at 500 g/ha: 500 g ai/ha, 0 to 100 scale, 0 is no effect, 100 is complete control
# In short: as §2
# [11] = tested on: ryegrass, Italian (Italian ryegrass, Lolium multiflorum); assay: Test A postemergence; conditions: Lolium multiflorum, post-emergence, 240 h, postemergence, read-out: Ryegrass, Italian plant response rating; for pest or weed control at 125 g/ha: 125 g ai/ha, visual injury on 0 to 100 scale (0 no effect, 100 complete control), approx. 10 d; for pest or weed control at 500 g/ha: 500 g ai/ha, 0 to 100 scale, 0 is no effect, 100 is complete control
# In short: as §2
# corn (Zea mays) = assay: Test A postemergence; conditions: Zea mays, post-emergence, 240 h, postemergence, read-out: Corn plant response rating; for plant injury at 125 g/ha: 125 g ai/ha, visual injury on 0 to 100 scale (0 no effect, 100 complete control), approx. 10 d; for plant injury at 500 g/ha: 500 g ai/ha, 0 to 100 scale, 0 is no effect, 100 is complete control
# In short: as §2
# [12] = tested on: ryegrass, Italian (Italian ryegrass, Lolium multiflorum); assay: Test A preemergence; conditions: Lolium multiflorum, pre-emergence, 240 h, preemergence, 0 to 100 scale where 0 is no effect and 100 is complete control, read-out: Ryegrass, Italian plant response rating; for pest or weed control at 125 g/ha: 125 g ai/ha, approx. 10 d; for pest or weed control at 500 g/ha: 500 g ai/ha
# In short: as §2
SMILES,pest or weed control at 250 g/ha [1],pest or weed control at 250 g/ha (rice (Oryra sativa)),pest or weed control at 250 g/ha [2],pest or weed control at 250 g/ha [3],pest or weed control at 125 g/ha [4],pest or weed control at 500 g/ha [4],pest or weed control at 125 g/ha [5],pest or weed control at 500 g/ha [5],pest or weed control at 125 g/ha [6],pest or weed control at 500 g/ha [6],pest or weed control at 125 g/ha [7],pest or weed control at 500 g/ha [7],plant injury at 125 g/ha [8],plant injury at 500 g/ha [8],pest or weed control at 125 g/ha (Kochia (Kochia scoparia)),pest or weed control at 500 g/ha (Kochia (Kochia scoparia)),pest or weed control at 125 g/ha [9],pest or weed control at 500 g/ha [9],pest or weed control at 125 g/ha [10],pest or weed control at 500 g/ha [10],other results
CN1C[C@H](c2cc(C(F)F)cs2)[C@@H](C(=O)Nc2ccccc2F)C1=O [Compound 1120],0%,20%,100%,65%,0%,50%,90%,90%,30%,50%,40%,60%,20%,50%,20%,70%,90%,90%,0%,20%,pest or weed control at 125 g/ha [11]: 20%; pest or weed control at 500 g/ha [11]: 40%; plant injury at 125 g/ha (corn (Zea mays)): 0%; plant injury at 500 g/ha (corn (Zea mays)): 60%; pest or weed control at 125 g/ha [12]: 20%; pest or weed control at 500 g/ha [12]: 40%
CSc1ccccc1NC(=O)[C@H]1C(=O)NC[C@@H]1c1cc(F)c(F)c(F)c1 [Compound 1124],0%,0%,95%,0%,0%,50%,60%,90%,0%,0%,50%,60%,0%,0%,60%,70%,60%,90%,0%,60%,pest or weed control at 125 g/ha [11]: 0%; pest or weed control at 500 g/ha [11]: 0%; plant injury at 125 g/ha (corn (Zea mays)): 0%; plant injury at 500 g/ha (corn (Zea mays)): 0%; pest or weed control at 125 g/ha [12]: 0%; pest or weed control at 500 g/ha [12]: 30%
Cc1c(F)cccc1NC(=O)[C@H]1C(=O)NC[C@@H]1c1cc(F)c(F)c(F)c1 [Compound 1125],0%,0%,100%,70%,0%,0%,90%,90%,40%,50%,40%,50%,30%,40%,0%,40%,90%,90%,0%,0%,pest or weed control at 125 g/ha [11]: 0%; pest or weed control at 500 g/ha [11]: 60%; plant injury at 125 g/ha (corn (Zea mays)): 30%; plant injury at 500 g/ha (corn (Zea mays)): 60%; pest or weed control at 125 g/ha [12]: 0%; pest or weed control at 500 g/ha [12]: 60%

# Source: US12077503B2, “Substituted cyclic amides and their use as herbicides” (FMC CORPORATION, priority 2015, dated 2024)
